ChEMBL document CHEMBL3421530, “Azepinone-Containing Tetrapeptide Analogues of Melanotropin Lead to Selective hMC4R Agonists and hMC5R Antagonist” (ACS Med Chem Lett, 2015)
pEC50, pIC50: −log10 of the molar value.

Target: T1, Melanocortin receptor 5 (Homo sapiens, UniProt P33032)
Assay: Displacement of [125I]-NDP-alpha-MSH from human MC5 receptor expressed in HEK293 cells by gamma counting analysis
Type: cell-based
Conditions: not given; call rule not given here

T1 sequence (P33032 whole entry): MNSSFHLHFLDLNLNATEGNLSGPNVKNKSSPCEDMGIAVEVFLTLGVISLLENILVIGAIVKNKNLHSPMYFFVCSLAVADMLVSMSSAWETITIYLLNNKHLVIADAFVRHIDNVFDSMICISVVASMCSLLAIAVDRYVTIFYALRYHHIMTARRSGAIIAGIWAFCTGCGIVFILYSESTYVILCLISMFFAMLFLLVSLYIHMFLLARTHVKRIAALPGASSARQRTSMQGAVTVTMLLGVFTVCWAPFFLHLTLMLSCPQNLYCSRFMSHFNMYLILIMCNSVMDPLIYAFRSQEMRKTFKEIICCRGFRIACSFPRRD

Q: With CC(=O)N[C@H]1Cc2c([nH]c3ccccc23)CN([C@H](Cc2ccc(Br)cc2)C(=O)N[C@@H](CCCNC(=N)N)C(=O)N[C@@H](Cc2c[nH]c3ccccc23)C(N)=O)C1=O as the compound, how does the pIC50 read?
A: 7.15

Q: With CC(=O)N[C@H]1Cc2ccccc2CN([C@H](Cc2ccccc2)C(=O)N[C@@H](CCCNC(=N)N)C(=O)N[C@@H](Cc2c[nH]c3ccccc23)C(N)=O)C1=O as the compound, how does the pIC50 read?
A: 7.43

Target: T1, Melanocortin receptor 5
Assay: Antagonist activity at human MC5 receptor expressed in HEK293 cells assessed as cAMP accumulation at 10 uM by luminescence counter relative to MT-II
Type: functional, cell-based
Set-up: scale not given: the % may be the effect or the level left
Conditions: not given

Q: Which Activity does the source give for CC(=O)N[C@H]1Cc2c([nH]c3ccccc23)CN([C@H](Cc2ccc(Br)cc2)C(=O)N[C@@H](CCCNC(=N)N)C(=O)N[C@@H](Cc2c[nH]c3ccccc23)C(N)=O)C1=O here?
A: 0%

Q: With CC(=O)N[C@H]1Cc2ccccc2CN([C@H](Cc2ccccc2)C(=O)N[C@@H](CCCNC(=N)N)C(=O)N[C@@H](Cc2c[nH]c3ccccc23)C(N)=O)C1=O as the compound, how does the Activity read?
A: 0%

Target: T2, Melanocortin receptor 3 (Homo sapiens, UniProt P41968)
Assay: Displacement of [125I]-NDP-alpha-MSH from human MC3 receptor expressed in HEK293 cells at 10 uM by gamma counting analysis
Type: cell-based
Conditions: not given

T2 sequence (P41968 whole entry): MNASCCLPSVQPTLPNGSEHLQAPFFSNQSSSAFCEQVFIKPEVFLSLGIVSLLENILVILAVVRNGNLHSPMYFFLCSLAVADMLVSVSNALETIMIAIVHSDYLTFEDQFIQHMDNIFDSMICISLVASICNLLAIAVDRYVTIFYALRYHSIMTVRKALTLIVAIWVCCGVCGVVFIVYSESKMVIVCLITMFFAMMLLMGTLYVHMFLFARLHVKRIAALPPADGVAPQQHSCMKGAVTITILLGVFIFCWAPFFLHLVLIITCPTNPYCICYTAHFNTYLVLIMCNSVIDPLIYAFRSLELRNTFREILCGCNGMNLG

Q: Which %max does the source give for CC(=O)N[C@H]1Cc2c([nH]c3ccccc23)CN([C@H](Cc2ccc(Br)cc2)C(=O)N[C@@H](CCCNC(=N)N)C(=O)N[C@@H](Cc2c[nH]c3ccccc23)C(N)=O)C1=O here?
A: 100%

Q: With CC(=O)N[C@H]1Cc2ccccc2CN([C@H](Cc2ccccc2)C(=O)N[C@@H](CCCNC(=N)N)C(=O)N[C@@H](Cc2c[nH]c3ccccc23)C(N)=O)C1=O as the compound, how does the %max read?
A: 59%

Target: T3, Melanocortin receptor 4 (Homo sapiens, UniProt P32245)
Assay: Agonist activity at human MC4 receptor expressed in HEK293 cells assessed as cAMP accumulation by luminescence counter
Type: functional, cell-based
Conditions: not given

T3 sequence (P32245 whole entry): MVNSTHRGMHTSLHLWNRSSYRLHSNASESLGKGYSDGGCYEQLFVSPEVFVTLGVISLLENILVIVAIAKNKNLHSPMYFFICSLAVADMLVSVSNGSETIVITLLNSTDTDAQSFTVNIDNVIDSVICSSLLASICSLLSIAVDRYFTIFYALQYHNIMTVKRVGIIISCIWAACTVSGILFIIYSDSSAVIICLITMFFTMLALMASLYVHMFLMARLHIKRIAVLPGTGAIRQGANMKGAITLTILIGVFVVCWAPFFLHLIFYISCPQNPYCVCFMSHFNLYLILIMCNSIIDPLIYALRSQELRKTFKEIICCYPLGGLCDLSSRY

Q: With CC(=O)N[C@H]1Cc2c([nH]c3ccccc23)CN([C@H](Cc2ccc(Br)cc2)C(=O)N[C@@H](CCCNC(=N)N)C(=O)N[C@@H](Cc2c[nH]c3ccccc23)C(N)=O)C1=O as the compound, how does the pEC50 read?
A: 9.52

Q: With CC(=O)N[C@H]1Cc2ccccc2CN([C@H](Cc2ccccc2)C(=O)N[C@@H](CCCNC(=N)N)C(=O)N[C@@H](Cc2c[nH]c3ccccc23)C(N)=O)C1=O as the compound, how does the pEC50 read?
A: 6.64

Target: T3, Melanocortin receptor 4
Assay: Displacement of [125I]-NDP-alpha-MSH from human MC4 receptor expressed in HEK293 cells at 10 uM by gamma counting analysis
Type: cell-based
Conditions: not given

Q: Which %max does the source give for CC(=O)N[C@H]1Cc2c([nH]c3ccccc23)CN([C@H](Cc2ccc(Br)cc2)C(=O)N[C@@H](CCCNC(=N)N)C(=O)N[C@@H](Cc2c[nH]c3ccccc23)C(N)=O)C1=O here?
A: 100%

Q: For CC(=O)N[C@H]1Cc2ccccc2CN([C@H](Cc2ccccc2)C(=O)N[C@@H](CCCNC(=N)N)C(=O)N[C@@H](Cc2c[nH]c3ccccc23)C(N)=O)C1=O, which %max is on record?
A: 80%

Target: T1, Melanocortin receptor 5
Assay: Antagonist activity at human MC5 receptor expressed in HEK293 cells assessed as cAMP accumulation by luminescence counter
Type: functional, cell-based
Conditions: hek293

Q: With CC(=O)N[C@H]1Cc2c([nH]c3ccccc23)CN([C@H](Cc2ccc(Br)cc2)C(=O)N[C@@H](CCCNC(=N)N)C(=O)N[C@@H](Cc2c[nH]c3ccccc23)C(N)=O)C1=O as the compound, how does the EC50 read?
A: Not Active

Q: For CC(=O)N[C@H]1Cc2ccccc2CN([C@H](Cc2ccccc2)C(=O)N[C@@H](CCCNC(=N)N)C(=O)N[C@@H](Cc2c[nH]c3ccccc23)C(N)=O)C1=O, which EC50 is on record?
A: Not Active

Tested on: not listed separately
Assay: Retention time of the compound
Type: physicochemical
Conditions: not given

Q: With CC(=O)N[C@H]1Cc2c([nH]c3ccccc23)CN([C@H](Cc2ccc(Br)cc2)C(=O)N[C@@H](CCCNC(=N)N)C(=O)N[C@@H](Cc2c[nH]c3ccccc23)C(N)=O)C1=O as the compound, how does the Retention_time read?
A: 14.85 min

Q: For CC(=O)N[C@H]1Cc2ccccc2CN([C@H](Cc2ccccc2)C(=O)N[C@@H](CCCNC(=N)N)C(=O)N[C@@H](Cc2c[nH]c3ccccc23)C(N)=O)C1=O, which Retention_time is on record?
A: 13.35 min

Target: T3, Melanocortin receptor 4
Assay: Agonist activity at human MC4 receptor expressed in HEK293 cells assessed as cAMP accumulation at 10 uM by luminescence counter relative to MT-II
Type: functional, cell-based
Conditions: not given

Q: For CC(=O)N[C@H]1Cc2c([nH]c3ccccc23)CN([C@H](Cc2ccc(Br)cc2)C(=O)N[C@@H](CCCNC(=N)N)C(=O)N[C@@H](Cc2c[nH]c3ccccc23)C(N)=O)C1=O, which Activity is on record?
A: 80%

Q: With CC(=O)N[C@H]1Cc2ccccc2CN([C@H](Cc2ccccc2)C(=O)N[C@@H](CCCNC(=N)N)C(=O)N[C@@H](Cc2c[nH]c3ccccc23)C(N)=O)C1=O as the compound, how does the Activity read?
A: 80%

Target: T4, Melanocyte-stimulating hormone receptor (Homo sapiens, UniProt Q01726)
Assay: Displacement of [125I]-NDP-alpha-MSH from human MC1 receptor expressed in HEK293 cells at 10 uM by gamma counting analysis
Type: cell-based
Conditions: not given
Target sequence in this assay (Q01726 whole entry, looked up): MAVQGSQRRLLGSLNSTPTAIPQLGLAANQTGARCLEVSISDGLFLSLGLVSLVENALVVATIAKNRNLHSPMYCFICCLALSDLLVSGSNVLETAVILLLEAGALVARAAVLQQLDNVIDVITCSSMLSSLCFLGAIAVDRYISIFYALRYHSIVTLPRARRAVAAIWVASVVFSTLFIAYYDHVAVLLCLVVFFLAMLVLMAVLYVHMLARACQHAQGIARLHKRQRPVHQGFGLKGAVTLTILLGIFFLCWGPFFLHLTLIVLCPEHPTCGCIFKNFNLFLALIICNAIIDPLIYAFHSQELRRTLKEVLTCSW

Q: With CC(=O)N[C@H]1Cc2c([nH]c3ccccc23)CN([C@H](Cc2ccc(Br)cc2)C(=O)N[C@@H](CCCNC(=N)N)C(=O)N[C@@H](Cc2c[nH]c3ccccc23)C(N)=O)C1=O as the compound, how does the %max read?
A: 80%

Q: Which %max does the source give for CC(=O)N[C@H]1Cc2ccccc2CN([C@H](Cc2ccccc2)C(=O)N[C@@H](CCCNC(=N)N)C(=O)N[C@@H](Cc2c[nH]c3ccccc23)C(N)=O)C1=O here?
A: 80%

Target: T2, Melanocortin receptor 3
Assay: Displacement of [125I]-NDP-alpha-MSH from human MC3 receptor expressed in HEK293 cells by gamma counting analysis
Type: cell-based
Conditions: read-out: IC50

Q: With CC(=O)N[C@H]1Cc2c([nH]c3ccccc23)CN([C@H](Cc2ccc(Br)cc2)C(=O)N[C@@H](CCCNC(=N)N)C(=O)N[C@@H](Cc2c[nH]c3ccccc23)C(N)=O)C1=O as the compound, how does the pIC50 read?
A: 7.00

Q: With CC(=O)N[C@H]1Cc2ccccc2CN([C@H](Cc2ccccc2)C(=O)N[C@@H](CCCNC(=N)N)C(=O)N[C@@H](Cc2c[nH]c3ccccc23)C(N)=O)C1=O as the compound, how does the pIC50 read?
A: < 5.70

Target: T4, Melanocyte-stimulating hormone receptor
Assay: Activity at human MC1 receptor expressed in HEK293 cells assessed as cAMP accumulation by luminescence counter
Type: functional, cell-based
Conditions: read-out: EC50
Target sequence in this assay (Q01726 whole entry): as the sequence (Q01726 whole entry, looked up) above

Q: With CC(=O)N[C@H]1Cc2c([nH]c3ccccc23)CN([C@H](Cc2ccc(Br)cc2)C(=O)N[C@@H](CCCNC(=N)N)C(=O)N[C@@H](Cc2c[nH]c3ccccc23)C(N)=O)C1=O as the compound, how does the pEC50 read?
A: 6.15

Q: With CC(=O)N[C@H]1Cc2ccccc2CN([C@H](Cc2ccccc2)C(=O)N[C@@H](CCCNC(=N)N)C(=O)N[C@@H](Cc2c[nH]c3ccccc23)C(N)=O)C1=O as the compound, how does the pEC50 read?
A: 6.00

Target: T1, Melanocortin receptor 5
Assay: Displacement of [125I]-NDP-alpha-MSH from human MC5 receptor expressed in HEK293 cells at 10 uM by gamma counting analysis
Type: cell-based
Conditions: not given

Q: With CC(=O)N[C@H]1Cc2c([nH]c3ccccc23)CN([C@H](Cc2ccc(Br)cc2)C(=O)N[C@@H](CCCNC(=N)N)C(=O)N[C@@H](Cc2c[nH]c3ccccc23)C(N)=O)C1=O as the compound, how does the %max read?
A: 100%

Q: Which %max does the source give for CC(=O)N[C@H]1Cc2ccccc2CN([C@H](Cc2ccccc2)C(=O)N[C@@H](CCCNC(=N)N)C(=O)N[C@@H](Cc2c[nH]c3ccccc23)C(N)=O)C1=O here?
A: 75%

Target: T2, Melanocortin receptor 3
Assay: Activity at human MC3 receptor expressed in HEK293 cells assessed as cAMP accumulation at 10 uM by luminescence counter relative to MT-II
Type: functional, cell-based
Conditions: not given

Q: With CC(=O)N[C@H]1Cc2c([nH]c3ccccc23)CN([C@H](Cc2ccc(Br)cc2)C(=O)N[C@@H](CCCNC(=N)N)C(=O)N[C@@H](Cc2c[nH]c3ccccc23)C(N)=O)C1=O as the compound, how does the Activity read?
A: 50%

Q: With CC(=O)N[C@H]1Cc2ccccc2CN([C@H](Cc2ccccc2)C(=O)N[C@@H](CCCNC(=N)N)C(=O)N[C@@H](Cc2c[nH]c3ccccc23)C(N)=O)C1=O as the compound, how does the Activity read?
A: 40%

Target: T3, Melanocortin receptor 4
Assay: Displacement of [125I]-NDP-alpha-MSH from human MC4 receptor expressed in HEK293 cells by gamma counting analysis
Type: cell-based
Conditions: not given

Q: With CC(=O)N[C@H]1Cc2c([nH]c3ccccc23)CN([C@H](Cc2ccc(Br)cc2)C(=O)N[C@@H](CCCNC(=N)N)C(=O)N[C@@H](Cc2c[nH]c3ccccc23)C(N)=O)C1=O as the compound, how does the pIC50 read?
A: 6.70

Q: With CC(=O)N[C@H]1Cc2ccccc2CN([C@H](Cc2ccccc2)C(=O)N[C@@H](CCCNC(=N)N)C(=O)N[C@@H](Cc2c[nH]c3ccccc23)C(N)=O)C1=O as the compound, how does the pIC50 read?
A: 6.66

Target: T4, Melanocyte-stimulating hormone receptor
Assay: Activity at human MC1 receptor expressed in HEK293 cells assessed as cAMP accumulation at 10 uM by luminescence counter relative to MT-II
Type: functional, cell-based
Conditions: not given
Target sequence in this assay (Q01726 whole entry, looked up): as above

Q: With CC(=O)N[C@H]1Cc2c([nH]c3ccccc23)CN([C@H](Cc2ccc(Br)cc2)C(=O)N[C@@H](CCCNC(=N)N)C(=O)N[C@@H](Cc2c[nH]c3ccccc23)C(N)=O)C1=O as the compound, how does the Activity read?
A: 100%

Q: With CC(=O)N[C@H]1Cc2ccccc2CN([C@H](Cc2ccccc2)C(=O)N[C@@H](CCCNC(=N)N)C(=O)N[C@@H](Cc2c[nH]c3ccccc23)C(N)=O)C1=O as the compound, how does the Activity read?
A: 70%

Target: T2, Melanocortin receptor 3
Assay: Activity at human MC3 receptor expressed in HEK293 cells assessed as cAMP accumulation by luminescence counter
Type: functional, cell-based
Conditions: read-out: EC50

Q: With CC(=O)N[C@H]1Cc2c([nH]c3ccccc23)CN([C@H](Cc2ccc(Br)cc2)C(=O)N[C@@H](CCCNC(=N)N)C(=O)N[C@@H](Cc2c[nH]c3ccccc23)C(N)=O)C1=O as the compound, how does the pEC50 read?
A: 5.61

Q: With CC(=O)N[C@H]1Cc2ccccc2CN([C@H](Cc2ccccc2)C(=O)N[C@@H](CCCNC(=N)N)C(=O)N[C@@H](Cc2c[nH]c3ccccc23)C(N)=O)C1=O as the compound, how does the pEC50 read?
A: 7.23

Target: T4, Melanocyte-stimulating hormone receptor
Assay: Displacement of [125I]-NDP-alpha-MSH from human MC1 receptor expressed in HEK293 cells by gamma counting analysis
Type: cell-based
Conditions: not given
Target sequence in this assay (Q01726 whole entry): as the sequence (Q01726 whole entry, looked up) above

Q: With CC(=O)N[C@H]1Cc2c([nH]c3ccccc23)CN([C@H](Cc2ccc(Br)cc2)C(=O)N[C@@H](CCCNC(=N)N)C(=O)N[C@@H](Cc2c[nH]c3ccccc23)C(N)=O)C1=O as the compound, how does the pIC50 read?
A: 6.52

Q: With CC(=O)N[C@H]1Cc2ccccc2CN([C@H](Cc2ccccc2)C(=O)N[C@@H](CCCNC(=N)N)C(=O)N[C@@H](Cc2c[nH]c3ccccc23)C(N)=O)C1=O as the compound, how does the pIC50 read?
A: 6.23
